The target of this assay is T1, IGF-1R (Homo sapiens, UniProt P08069).
T1 construct: expressed in transfected cells
Kind of assay: Example B-2: IGF-1R Assay (PathHunter cell lines, EC80 agonist challenge, chemiluminescent detection). In kind it is cell-based. The note with it: PathHunter cells, compound 60 minutes at 37° C., EC80 agonist 3 hours; read-out: IC50, Biological Activity against IGF-1R (Table B2). Summed up: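 PathHunter cells were pre-incubated with compound for 60 min at 37° C (1% vehicle), then challenged with EC80 agonist for 3 h at room temperature. Chemiluminescent detection after 1 h gave % inhibition relative to EC80 and vehicle controls, from which IC50 was derived.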

Usually pIC50 stands for −log10 of the IC50, conventionally taken in molar units.

pIC50: −log10 of the molar value. Where only a bound is given, the exact number is not on record here.

T1 sequence (P08069 31-1367): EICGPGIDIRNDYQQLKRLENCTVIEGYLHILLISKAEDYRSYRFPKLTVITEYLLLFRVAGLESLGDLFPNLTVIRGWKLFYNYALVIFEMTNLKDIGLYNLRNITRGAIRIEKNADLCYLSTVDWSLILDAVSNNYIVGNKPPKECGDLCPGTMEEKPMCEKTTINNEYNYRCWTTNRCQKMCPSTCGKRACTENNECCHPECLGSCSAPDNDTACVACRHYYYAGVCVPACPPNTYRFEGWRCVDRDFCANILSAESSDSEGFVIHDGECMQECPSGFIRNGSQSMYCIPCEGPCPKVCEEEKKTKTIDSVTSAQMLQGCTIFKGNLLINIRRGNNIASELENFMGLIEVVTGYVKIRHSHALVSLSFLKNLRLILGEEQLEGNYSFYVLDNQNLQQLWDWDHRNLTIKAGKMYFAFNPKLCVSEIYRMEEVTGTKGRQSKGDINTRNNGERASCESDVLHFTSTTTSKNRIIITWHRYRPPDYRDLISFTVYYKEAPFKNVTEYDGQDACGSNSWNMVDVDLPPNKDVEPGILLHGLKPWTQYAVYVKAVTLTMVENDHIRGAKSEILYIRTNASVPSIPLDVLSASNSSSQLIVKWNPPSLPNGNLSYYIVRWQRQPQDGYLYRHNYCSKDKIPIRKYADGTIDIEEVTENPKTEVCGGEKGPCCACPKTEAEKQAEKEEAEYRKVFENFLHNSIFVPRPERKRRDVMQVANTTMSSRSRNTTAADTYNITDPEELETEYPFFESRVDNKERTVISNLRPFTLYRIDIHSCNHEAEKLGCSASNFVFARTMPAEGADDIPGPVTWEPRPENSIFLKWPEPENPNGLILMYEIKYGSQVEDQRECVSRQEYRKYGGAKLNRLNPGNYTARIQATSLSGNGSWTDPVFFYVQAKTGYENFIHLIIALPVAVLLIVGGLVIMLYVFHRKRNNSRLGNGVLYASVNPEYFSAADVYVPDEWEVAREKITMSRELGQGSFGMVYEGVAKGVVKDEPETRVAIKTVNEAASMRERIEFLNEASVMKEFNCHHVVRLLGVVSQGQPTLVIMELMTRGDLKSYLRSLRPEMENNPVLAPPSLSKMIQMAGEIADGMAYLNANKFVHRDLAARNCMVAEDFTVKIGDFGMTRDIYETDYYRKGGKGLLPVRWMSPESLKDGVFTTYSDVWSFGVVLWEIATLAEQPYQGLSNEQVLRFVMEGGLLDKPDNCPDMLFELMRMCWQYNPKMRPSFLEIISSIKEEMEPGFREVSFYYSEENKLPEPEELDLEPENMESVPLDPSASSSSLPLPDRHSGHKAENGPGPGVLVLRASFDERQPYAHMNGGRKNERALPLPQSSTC

As for `CN(C)CC(=O)Nc1cc(N2C(=O)N(Cc3ccnc(N[C@H]4[C@@H]5COC[C@@H]54)c3)C(C)(C)C2=O)ccc1OC(F)(F)F` [Compound 281, N-(5-(3-((2-(((1R,5S,6r)-3-oxabicyclo[3.1.0]hexan-6-yl)amino)pyridin-4-yl)methyl)-4,4-dimethyl-2,5-dioxoimidazolidin-1-yl)-2-(trifluoromethoxy)phenyl)-2-(dimethylamino)acetamide], the pIC50 is at least 6.30.
Regarding `CC(C)c1ccc(N2C(=O)N(Cc3ccnc4c3CC(=O)N4)C(C)(C)C2=O)cc1C#N` [Compound 68, 5-(4,4-dimethyl-2,5-dioxo-3-((2-oxo-2,3-dihydro-1H-pyrrolo[2,3-b]pyridin-4-yl)methyl)imidazolidin-1-yl)-2-isopropylbenzonitrile], the pIC50 is 5.70 to 6.30.
To `Cn1cc(CNc2cc(CN3C(=O)N(c4ccc(S(=O)(=O)C(F)(F)F)cc4)C(=O)C3(C)C)ccn2)cn1` [Compound 344, 5,5-dimethyl-1-((2-(((1-methyl-1H-pyrazol-4-yl)methyl)amino)pyridin-4-yl)methyl)-3-(4-((trifluoromethyl)sulfonyl)phenyl) imidazolidine-2,4-dione] belongs at least 6.30; to `C[C@@H](CC#N)Nc1cc(CN2C(=O)N(c3ccc(C(C)(C)C#N)cc3)C(=O)C2(C)C)ccn1` [Compound 151, (S)-3-((4-((3-(4-(2-cyanopropan-2-yl)phenyl)-5,5-dimethyl-2,4-dioxoimidazolidin-1-yl)methyl)pyridin-2-yl)amino)butanenitrile], 5.70 to 6.30.
With `CC1(C)C(=O)N(c2ccc3c(c2)N(S(C)(=O)=O)CC3)C(=O)N1Cc1ccnc(N[C@H]2[C@@H]3COC[C@@H]32)c1` [Compound 251, 1-((2-(((1R,5S,6r)-3-oxabicyclo[3.1.0]hexan-6-yl)amino)pyridin-4-yl)methyl)-5,5-dimethyl-3-(1-(methylsulfonyl)indolin-6-yl)imidazolidine-2,4-dione] the figure was below 5.00.
Consider `CC1(C)C(=O)N(c2ccc3c(c2)OCC32CCC2)C(=O)N1Cc1ccnc2c1CC(=O)N2` [Compound 51, 5,5-dimethyl-1-((2-oxo-2,3-dihydro-1H-pyrrolo[2,3-b]pyridin-4-yl)methyl)-3-(2H-spiro[benzofuran-3,1′-cyclobutan]-6-yl)imidazolidine-2,4-dione], for which the pIC50 is at least 6.30.
With `CC1(C)C(=O)N(c2ccc(C3(C#N)CC3(C)C)cc2)C(=O)N1Cc1ccnc(N[C@H]2[C@@H]3COC[C@@H]32)c1` (stereo partly drawn) [Compound 170, 1-(4-(3-((2-(((1R,5S,6r)-3-oxabicyclo[3.1.0]hexan-6-yl)amino)pyridin-4-yl)methyl)-4,4-dimethyl-2,5-dioxoimidazolidin-1-yl)phenyl)-2,2-dimethylcyclopropane-1-carbonitrile] the figure was at least 6.30.
With `CC(C)Nc1cc(CN2C(=O)N(c3ccc4c(c3)N(S(C)(=O)=O)CC43CC3)C(=O)C2(C)C)ccn1` [Compound 200, 1-((2-(isopropylamino)pyridin-4-yl)methyl)-5,5-dimethyl-3-(1′-(methylsulfonyl)spiro[cyclopropane-1,3′-indolin]-6′-yl)imidazolidine-2,4-dione] the figure was at least 6.30.
To `CC(C)Cc1cn(S(C)(=O)=O)c2cc(N3C(=O)N(Cc4ccnc5c4CC(=O)N5)C(C)(C)C3=O)ccc12` [Compound 50, 3-(3-isobutyl-1-(methylsulfonyl)-1H-indol-6-yl)-5,5-dimethyl-1-((2-oxo-2,3-dihydro-1H-pyrrolo[2,3-b]pyridin-4-yl)methyl)imidazolidine-2,4-dione] belongs at least 6.30.
In the case of `COC[C@@H](C)Nc1cc(CN2C(=O)N(c3ccc(C(C)(C)C#N)cc3)C(=O)C2(C)C)ccn1` [Compound 150, (R)-2-(4-(3-((2-((1-methoxypropan-2-yl)amino)pyridin-4-yl)methyl)-4,4-dimethyl-2,5-dioxoimidazolidin-1-yl)phenyl)-2-methylpropanenitrile], the pIC50 was at least 6.30.
With `CC1(C)C(=O)N(c2ccc(S(=O)(=O)C(F)(F)F)cc2)C(=O)N1Cc1ccnc(N[C@H]2CCOC[C@@H]2F)c1` [Compound 334, 1-((2-(((3R,4S)-3-fluorotetrahydro-2H-pyran-4-yl)amino)pyridin-4-yl)methyl)-5,5-dimethyl-3-(4-((trifluoromethyl)sulfonyl)phenyl) imidazolidine-2,4-dione] the figure was 5.70 to 6.30; with `CC1(C)C(=O)N(c2ccc(S(=O)(=O)C(F)(F)F)cc2)C(=O)N1Cc1ccnc(NC2CCNC(=O)C2)c1` (stereo not shown) [Compound 333, 5,5-dimethyl-1-((2-((2-oxopiperidin-4-yl)amino)pyridin-4-yl)methyl)-3-(4-((trifluoromethyl)sulfonyl)phenyl) imidazolidine-2,4-dione], 5.70 to 6.30; with `C[C@H](Nc1cc(CN2C(=O)N(c3ccc(S(=O)(=O)C(F)(F)F)cc3)C(=O)C2(C)C)ccn1)[C@H]1CCCO1` [Compound 340, 5,5-dimethyl-1-((2-(((S)-1-((R)-tetrahydrofuran-2-yl)ethyl)amino)pyridin-4-yl)methyl)-3-(4-((trifluoromethyl)sulfonyl)phenyl) imidazolidine-2,4-dione], 5.00 to 5.70.
For `CC1(C)C(=O)N(c2ccc(OC(F)(F)F)c(F)c2)C(=O)N1Cc1ccnc2c1CC(=O)N2` [Compound 286, 3-(3-fluoro-4-(trifluoromethoxy)phenyl)-5,5-dimethyl-1-((2-oxo-2,3-dihydro-1H-pyrrolo[2,3-b]pyridin-4-yl)methyl)imidazolidine-2,4-dione], the pIC50 was 5.00 to 5.70.
To `CC1(C)C(=O)N(c2ccc(C3(C(F)(F)F)CCC3)cc2F)C(=O)N1Cc1ccnc2c1CC(=O)N2` [Compound 59, 3-(2-fluoro-4-(1-(trifluoromethyl)cyclobutyl)phenyl)-5,5-dimethyl-1-((2-oxo-2,3-dihydro-1H-pyrrolo[2,3-b]pyridin-4-yl)methyl)imidazolidine-2,4-dione] belongs at least 6.30; to `Cn1ccc(CNc2cc(CN3C(=O)N(c4ccc5c(c4)N(S(C)(=O)=O)CC5(C)C)C(=O)C3(C)C)ccn2)n1` [Compound 246, 3-(3,3-dimethyl-1-(methylsulfonyl)indolin-6-yl)-5,5-dimethyl-1-((2-(((1-methyl-1H-pyrazol-3-yl)methyl)amino)pyridin-4-yl)methyl)imidazolidine-2,4-dione], at least 6.30; to `CO[C@H](C)CNc1cc(CN2C(=O)N(c3ccc(S(=O)(=O)C(F)(F)F)cc3)C(=O)C2(C)C)ccn1` [Compound 338, (R)-1-((2-((2-methoxypropyl)amino)pyridin-4-yl)methyl)-5,5-dimethyl-3-(4-((trifluoromethyl)sulfonyl)phenyl) imidazolidine-2,4-dione], at least 6.30.
To `CC1(C)C(=O)N(c2ccc(OC(F)(F)F)c(NS(C)(=O)=O)c2)C(=O)N1Cc1ccnc2c1CC(=O)N2` [Compound 283, N-(5-(4,4-dimethyl-2,5-dioxo-3-((2-oxo-2,3-dihydro-1H-pyrrolo[2,3-b]pyridin-4-yl)methyl)imidazolidin-1-yl)-2-(trifluoromethoxy)phenyl) methanesulfonamide] belongs below 5.00.
With `CC(C)(Br)Cc1cn(S(C)(=O)=O)c2cc(N3C(=O)N(Cc4ccnc5c4CC(=O)N5)C(C)(C)C3=O)ccc12` [Compound 41, 3-(3-(2-bromo-2-methylpropyl)-1-(methylsulfonyl)-1H-indol-6-yl)-5,5-dimethyl-1-((2-oxo-2,3-dihydro-1H-pyrrolo[2,3-b]pyridin-4-yl)methyl)imidazolidine-2,4-dione] the figure was at least 6.30.
As to `CC(Nc1cc(CN2C(=O)N(c3ccc4c(c3)N(S(C)(=O)=O)CC43CCC3)C(=O)C2(C)C)ccn1)C1CCOC1` (stereo not shown) [Compound 225, 5,5-dimethyl-3-(1′-(methylsulfonyl)spiro[cyclobutane-1,3′-indolin]-6′-yl)-1-((2-((1-(tetrahydrofuran-3-yl)ethyl)amino)pyridin-4-yl)methyl)imidazolidine-2,4-dione], the pIC50 is at least 6.30.
With `CC1(C)C(=O)N(c2ccc(C3(C(F)(F)F)CC3)cc2)C(=O)N1Cc1ccnc2c1CCN2` [Compound 33, 1-((2,3-dihydro-1H-pyrrolo[2,3-b]pyridin-4-yl)methyl)-5,5-dimethyl-3-(4-(1-(trifluoromethyl)cyclopropyl)phenyl) imidazolidine-2,4-dione] the figure was at least 6.30.
With `CCOC(=O)N1C(=O)Cc2c(CN3C(=O)N(c4ccc(C5(C(F)(F)F)CC5)cc4)C(=O)C3(C)C)ccnc21` [Compound 78, ethyl 4-((5,5-dimethyl-2,4-dioxo-3-(4-(1-(trifluoromethyl)cyclopropyl)phenyl)imidazolidin-1-yl)methyl)-2-oxo-2,3-dihydro-1H-pyrrolo[2,3-b]pyridine-1-carboxylate] the figure was at least 6.30.
Regarding `CNS(=O)(=O)c1ccc(CNc2cc(CN3C(=O)N(c4ccc(C5(C(F)(F)F)CC5)cc4)C(=O)C3(C)C)ccn2)cc1` [Compound 172, 4-(((4-((5,5-dimethyl-2,4-dioxo-3-(4-(1-(trifluoromethyl)cyclopropyl)phenyl)imidazolidin-1-yl)methyl)pyridin-2-yl)amino)methyl)-N-methylbenzenesulfonamide], the pIC50 is at least 6.30.
To `CC1(C)C(=O)N(c2ccc(C3(C(F)(F)F)CC3)cc2)C(=O)N1Cc1ccnc2c1OCC1(CC1)N2` [Compound 58, 1-((2′H,4′H-spiro[cyclopropane-1,3′-pyrido[3,2-b][1,4]oxazin]-8′-yl)methyl)-5,5-dimethyl-3-(4-(1-(trifluoromethyl)cyclopropyl)phenyl) imidazolidine-2,4-dione] belongs at least 6.30; to `CN1CC(C)(C)c2ccc(N3C(=O)N(Cc4ccnc(N[C@H]5[C@@H]6COC[C@@H]65)c4)C(C)(C)C3=O)cc21` [Compound 218, 1-((2-(((1R,5S,6r)-3-oxabicyclo[3.1.0]hexan-6-yl)amino)pyridin-4-yl)methyl)-5,5-dimethyl-3-(1,3,3-trimethylindolin-6-yl)imidazolidine-2,4-dione], at least 6.30.

The values are drawn from patent publication US20250145585A1, “HETEROCYCLIC INHIBITORS OF IGF-1R FOR TREATMENT OF DISEASE” (HORIZON THERAPEUTICS IRELAND DAC, priority 2023, published 2025).
